Marks after values point to notes of the source that are not given here.
Legend:
[1] = tested on: lolitrem B toxicosis (Rye Grass Staggers); assay: Clinical and neurological signs in sheep fed lolitrem B-containing toxic feed with or without potassium bromide; assay type: in vivo
Procedure: Animals were exposed to a controlled diet containing 0.16 mg/kg body weight (BW) lolitrem B toxin rising to 0.27 mg/kg BW after 21 days exposure to toxic feed. Toxin was delivered as perennial rye grass seed (GA66 AR98, Grasslanz Technology Ltd, NZ) containing very high levels of lolitrem B toxin (11 ppm DM) as a component of the animal's feed intake.
On entry to the trial, all animals receiving toxic feed were exposed to a diet containing experimental ryegrass seed with a final lolitrem B concentration of 0.08 mg/kg LW, lucerne chaff and molasses 30% w/v for 3 days. After this induction period, the toxin content of the feed was increased to 0.16 mg/kg LW for the duration of the trial. […] Ryegrass seed constituted up to 65% of available Feed on Offer (FOO) by dry weight contributing a metabolisable energy of 12.1 Mj/kg DM.
At entry to the trial, all animals were subjected to a full clinical examination. Live weight was recorded. Venous blood and urine samples were collected for laboratory. Animals were also subjected to gait analysis, neurological examination including proprioceptive testing, cranial nerve examination and papillary light and menace reflexes. Electromyography (EMG) of tricep and neck muscles was performed. Gait analysis (see below) was repeated at three day intervals until onset of significant clinical signs and/or gait abnormality at which point animals were subjected to gait analysis daily. Gait analysis was recorded on video each occasion.
General clinical signs were also noted on a daily basis; these included observations of nervousness or agitation, changes in normal placement of body, limb or head position changes in faecal consistency, feeding behaviour or water consumption, observeable tremor of the body or head, eye position (strabismus) and movement (nystagmus), locomotory disturbances, or any other clinical changes worthy of note. Feed and water intake was monitored daily for the duration of the trial. Heart rate, respiration rate at rest and rectal temperature were also monitored daily.
Prophylactic sheep received a split loading dose of 300 mg/kg on day 1, 120 mg/kg (100 mg LD+20 mg/kg daily maintenance dose) on day 2, 120 mg/kg on day 3 and 20 mg/kg daily for the duration of the trial. An acute treatment dose of 300 mg/kg LW was used for the trial. Both prophylactic and acute treatment doses were envisaged to give serum concentrations of 750 to 1000 μg/ml for the duration of the initial weeks of the trial.
Group 1—Negative Control: lucerne chaff only;
Group 2—Positive Control: lucerne chaff containing 0.16 mg/kg LW lolitrem B;
Prophylactic treatment sheep (Groups 4 & 5) received a split loading dose of 300 mg/kg on day 1 of the trial, 120 mg/kg (100 mg LD 20 mg/kg daily maintenance dose) on day 2, 120 mg/kg on day 3 and 20 mg/kg daily thereafter. Acute therapy sheep were dosed with a single dose of 300 mg/kg on day of falling.
End of the trial was defined for Groups 2 and 3 as date of falling. Group 1 animals entered the end of trial protocol with their Group 2 counterparts. Group 4 and 5 animals entered the end of trial protocol after 22 days. This end of trial protocol consisted of the following analysis: • On Day 1: animals were subjected to a full clinical examination, gait analysis, urine and blood collection, neurological examination and EMG. • On Day 2: further gait analysis was recorded, • On Day 3: animals were again subjected to full clinical examination, gait analysis, urine and blood collection, neurological examination and EMG as well as live weight recorded prior to necropsy.

[2] = tested on: lolitrem B toxicosis (Rye Grass Staggers); assay: Electromyography, tremor intensity; assay type: in vivo, sheep; details: lolitrem B intoxicated, EMG
Procedure: EMGs were recorded on entry to the trial, entry to the end of trial (Day 1) and date of post mortem (Day 3) using Powerlab™ (ADInstruments, Castle Hill, Australia) and data recorded using LabChart™ software (ADInstruments, Australia). In preparation, the fleece was shorn from an area over the triceps muscle and along brachiocephalicus muscle of the neck. EMG electrodes were attached to the skin using SuperGlue™. Muscle activity was recorded for a minimum of three minutes with the animal standing at rest with a band pass filter set at 100 Hz. Three minute EMG recordings were taken using Ag—AgCl surface electrodes over the triceps muscle on to entry to the trial, on first day of falling (Day 1) and 48 hours post treatment (Day 3). Data analysis was achieved by application of a Fast-Fourier transformation for statistical comparison. Area under the curve was then calculated at frequencies between 5 and 30 Hz to estimate tremor intensity.

[3] = tested on: mice; assay: Lolitrem B intoxication in mice, tremor and movement analysis; assay type: in vivo; details: lolitrem B 2 mg/kg IP
Procedure: FIG. 1. Tremor analysis of animals treated with a single dose of lolitrem B toxin. Tremor analysis: FFT frequency analysis from a mouse prior to (A) and 6 hours post lolitrem B injection 2 mg/kg i.p. (B). Low frequency (0-7 Hz) power output represents primarily movement. […] (D) Tremor-Motion power ratio at one hour post lolitrem B injection (n=4) and vehicle only control (n=4) (*p<0.05, lolitrem B (2 mg/kg i.p.) vs vehicle).
Lolitrem B was tested in mice to establish this as a suitable model for perennial ryegrass toxicosis and lolitrem B intoxication in grazing animals. […] These signs are consistent with clinical signs seen in grazing animals (See FIG. 1).

[4] = sheep, Group 3: toxic feed plus single oral 300 mg/kg KBr on day of falling
[5] = sheep, Group 4: toxic feed plus prophylactic oral KBr (300, 120, 120 then 20 mg/kg daily), 22 days
[6] = sheep, Group 5: prophylactic oral KBr only, no toxic feed, 22 days
[7] = sheep, Group 2: toxic feed (lolitrem B 0.16 mg/kg LW), no treatment

## [Br-].[K+] [potassium bromide]
[1]; [4]
  Altered stance, mean number of days to onset (+/−s.e.m.): 10.22(+/−2.10) days
  Altered stance, number of animals affected: 9/9
  Fine tremor, mean number of days to onset (+/−s.e.m.): 12.43(+/−4.82) days
  Fine tremor, number of animals affected: 7/9
  First clinical signs, mean number of days to onset (+/−s.e.m.): 8.56(+/−1.94) days
  First clinical signs, number of animals affected: 9/9
  Major body clonus, mean number of days to onset (+/−s.e.m.): 11.67(+/−2.88) days
  Major body clonus, number of animals affected: 3/9
[1]; sheep, Group 4: toxic feed plus prophylactic oral KBr
  animals showing evidence of mild anxiolysis: ^aIncludes 4/9 animals showing evidence of mild anxiolysis
[1]; [5]
  Altered stance, mean number of days to onset (+/−s.e.m.): 8.33(+/−1.22) days
  Altered stance, number of animals affected: 9/9
  Fine tremor, mean number of days to onset (+/−s.e.m.): 12.14(+/−4.45) days
  Fine tremor, number of animals affected: 7/9
  First clinical signs, mean number of days to onset (+/−s.e.m.): 6.33(+/−1.73) days
  First clinical signs, number of animals affected: 9/9^a
  Major body clonus, mean number of days to onset (+/−s.e.m.): 10.67(+/−2.65) days
  Major body clonus, number of animals affected: 5/9
[1]; sheep, Group 4 versus Groups 2 and 3
  altered stance reported earlier than in toxin-only counterparts: approximately two
[1]; sheep, Group 5: prophylactic oral KBr only
  animals showing evidence of mild anxiolysis: ^bIncludes 5/9 animals showing evidence of mild anxiolysis
[1]; [6]
  Altered stance, mean number of days to onset (+/−s.e.m.): 11.0(+/−4.69) days
  Altered stance, number of animals affected: 4/9
  Fine tremor, mean number of days to onset (+/−s.e.m.): 11.00(+/−0.0) days
  Fine tremor, number of animals affected: 1/9
  First clinical signs, mean number of days to onset (+/−s.e.m.): 10.75(+/−4.46) days
  First clinical signs, number of animals affected: 8/9^b
  Major body clonus, mean number of days to onset (+/−s.e.m.): 0 days
  Major body clonus, number of animals affected: 0/9
[1]; sheep, potassium bromide at the prophylactic dose
  range of onset of mild mood changes: 4 to 17 days
[2]; Group 3 sheep, acute KBr treatment
  Day 1: Day 3 tremor intensity ratio: 0.81

## CC(C)=C[C@H]1O[C@H]2[C@H]3O[C@@]34[C@H](CC[C@@]3(C)[C@@]4(O)CC[C@H]4Cc5c([nH]c6ccc7c(c56)C[C@@H]5[C@@H](C7=O)C(C)(C)OC5(C)C)[C@@]43C)O[C@@H]2C(C)(C)O1 [lolitrem B]
[1]; intoxicated sheep
  time from Type 1 to Type 2 gait changes: approximately 9 days
[1]; lolitrem B intoxicated sheep
  Menace reflex: either lost or reduced
  pupillary light reflex: normal
[1]; sheep, Group 2 (toxin only)
  Ventral strabismus, animals affected: 9/9
[1]; [7]
  Altered stance, mean number of days to onset (+/−s.e.m.): 11.78(+/−2.58) days
  Altered stance, number of animals affected: 9/9
  Fine tremor, mean number of days to onset (+/−s.e.m.): 8.22(+/−2.58) days
  Fine tremor, number of animals affected: 9/9
  First clinical signs, mean number of days to onset (+/−s.e.m.): 7.56(+/−2.06) days
  First clinical signs, number of animals affected: 9/9
  Major body clonus, mean number of days to onset (+/−s.e.m.): 17.33(+/−3.51) days
  Major body clonus, number of animals affected: 3/9
[1]; sheep, Group 3 (toxin, acute KBr on day of falling)
  Ventral strabismus, animals affected: 7/9
[1]; sheep, Group 4 (toxin plus prophylactic KBr)
  Ventral strabismus, animals affected: 6
[3]
  distinctive tremor spike, frequency range: 10-19 Hz
  movement: decrease in movement
[2]; Group 2 sheep, no treatment
  Day 1: Day 3 tremor intensity ratio, median: 2.03

From patent US9913858B2, “Prevention and treatment of toxicosis” (priority 2013, dated 2018)
